For one assay, the system named is Phytophthora infestans. Kind of assay: whole plant or invertebrate. The class given is in vivo. The conditions noted are these: for pest or weed control at 200 ppm: Phytophthora infestans, in Solanum lycopersicum, 96 h.
The subject of assay [1] is Puccinia recondita (f. sp. tritici Races PKB and PLD). Kind of assay: whole plant or invertebrate. The class given is in vivo.
In a further assay the test system is Piricularia oryzae. The assay can be described thus: whole plant or invertebrate. It counts as in vivo. The conditions noted are these: for pest or weed control at 200 ppm: read-out: % Control RB, application rate 200 ppm.
The test system of another assay is Pseudomonas fluorescens. The assay can be described thus: Alternate Minimum Inhibitory Concentrations Test (Table 4), Ps.fl. The conditions noted are these: Table 4 alternate test, 250 ppm to 0.8 ppm in TSB, 72 hours, 30° C.; for MIC: Pseudomonas fluorescens, read-out: MIC Ps.fl. It counts as cell-based. On the procedure:
The compounds of Examples 1-8, 12-26, 28-33, 36-37, 39-42, 44-109, 111-114, and 116-120 were subjected also to the following alternate biocidal activity test procedures with the results as indicated in Table 4.
The MIC test measures the viability of Pseudomonas fluorescens inoculum in TSB when exposed for 72 hours to varying concentrations of test compound.
A 125 μl aliquot of 10,000 ppm test compound in acetone was added to 4.88 ml of TSB to provide a 250 ppm solution. From this solution, 100 μL was transferred to the first row of two microtiter plate columns. Both replicates and five additional compounds were all serially diluted 1:1 to a final concentration of 0.8 ppm in TSB.
Inoculation was accomplished by diluting a 24 hr Ps fl culture, four mls per 36 mls of phosphate buffer solution. A Dynatech autoinoculator was used to transfer 1.5 μl of this cell suspension to the microtiter plates. The plates were incubated at 30° C. for 3 days before the lowest concentration at which no growth occurs was recorded in the database.

For assay [2], the system named is Erysiphe graminis (f. sp. tritici). The assay can be described thus: whole plant or invertebrate. The settings on record: for pest or weed control at 12 ppm / pest or weed control at 200 ppm: Blumeria graminis, read-out: % Control WPM. It counts as in vivo.
Assay [3] relates to Pellicularia filamentosa (f. sp. sasiki). The assay can be described thus: whole plant or invertebrate. It counts as in vivo. The conditions noted are these: for pest or weed control at 200 ppm: 120 h, read-out: % Control RSB.
For assay [4], the system named is Pseudoperonospora cubensis. Kind of assay: whole plant or invertebrate. It counts as in vivo. The settings on record: Pseudoperonospora cubensis, in Cucumis sativus, 168 h; read-out: % Control CDM.
[5] abbreviates: Puccinia recondita, 240 h, read-out: % Control WLR.
[6] abbreviates: read-out: % Control TLB, application rate 200 ppm.

Like-named read-outs stand apart in the source and are kept apart here.

From patent US5300672A (priority 1992, dated 1994) come the findings set out here.

As for `CCCCCCCCNC(=O)/C=C\SC(=O)c1ccoc1` [Compound 62, N-octyl-cis-3-(3-furoylthio)acrylamide], the pest or weed control at 200 ppm in the assay with Phytophthora infestans (read-out: % Control TLB) was determined as 90%; with Piricularia oryzae (Pyricularia oryzae), 0%; in assay [3], 0%. Besides, the pest or weed control at 100 ppm in assay [1] (setting [5]) was found to be 0%. The MIC in the assay with Pseudomonas fluorescens is > 250 µg/mL. Moreover, in assay [2], the pest or weed control at 12 ppm was found to be 50%.

Regarding `C=CCC(=O)S/C=C\C(=O)NCCCCCCCC` [Compound 63, N-octyl-cis-3-[(3-butenoyl)thio]acrylamide], the pest or weed control at 200 ppm is 100% in the assay with Phytophthora infestans (setting [6]); 0% in assay [1] (setting [5]); 0% in the assay on Piricularia oryzae (Pyricularia oryzae); 0% in assay [2]; 0% in assay [3]. Also, in the assay on Pseudomonas fluorescens, the MIC is > 250 µg/mL.

Take `C=Cc1ccc(C(=O)S/C=C\C(=O)NCCCCCCCC)cc1` [Compound 64, N-octyl-cis-3-[(4-ethenylbenzoyl)thio]acrylamide]: the pest or weed control at 200 ppm worked out at 80% in the assay on Phytophthora infestans (read-out: % Control TLB); 0% in assay [1] (setting [5]); 0% in the assay with Piricularia oryzae (Pyricularia oryzae); 0% in assay [2]; 0% in assay [3]. The MIC in the assay with Pseudomonas fluorescens was > 250 µg/mL.

`CCCCCCCCNC(=O)/C=C\SC(=O)c1ccsc1` [Compound 65, N-octyl-cis-3-[(3-thiophene)carbonylthio]acrylamide]: the pest or weed control at 200 ppm in the assay with Phytophthora infestans (setting [6]) stood at 95%; in assay [1] (setting [5]) it was 0%; with Piricularia oryzae (Pyricularia oryzae), 0%; in assay [2] it was 0%; in assay [3], 0%. Besides, the MIC in the assay on Pseudomonas fluorescens was > 250 µg/mL.

As to `CCCCCCCCNC(=O)/C=C\SC(=O)/C=C/c1cccs1` [Compound 66, N-octyl-cis-3-[(trans-3-(2-thiophene)propenoyl)thio]acrylamide], the pest or weed control at 200 ppm is 90% in the assay with Phytophthora infestans (read-out: % Control TLB), 0% in assay [1] (setting [5]), 0% in assay [2] and 0% in assay [3]. In the assay on Piricularia oryzae (Pyricularia oryzae, read-out: % Control RB, application rate 50 ppm), the pest or weed control at 50 ppm amounted to 50%. Also, the MIC in the assay with Pseudomonas fluorescens is > 250 µg/mL.

For the molecule `C=CC(=O)S/C=C\C(=O)NCCCCCCCC` [Compound 71, N-octyl-cis-3-(propenoylthio)acrylamide], the pest or weed control at 200 ppm was 100% in the assay on Phytophthora infestans (setting [6]), 0% in assay [1] (setting [5]), 0% in the assay with Piricularia oryzae (Pyricularia oryzae) and 0% in assay [3]. Moreover, the MIC in the assay on Pseudomonas fluorescens was > 250 µg/mL. Further, in assay [2], the pest or weed control at 12 ppm stood at 50%.

As to `CCCCCCCCNC(=O)/C=C\SC(=O)c1cnc2ccccc2c1` [Compound 72, N-octyl-cis-3-[(3-quinoline)carbonylthio]acrylamide], the pest or weed control at 200 ppm was determined as 90% in the assay with Phytophthora infestans (read-out: % Control TLB); 0% in assay [1] (setting [5]); 0% in the assay on Piricularia oryzae (Pyricularia oryzae); 0% in assay [2]; 50% in assay [3]. Further, the MIC in the assay on Pseudomonas fluorescens was > 250 µg/mL.

For the molecule `CCCCCCCCNC(=O)/C=C\SC(=O)CCOc1ccccc1` [Compound 79, N-octyl-cis-3-[(3-phenoxypropanoyl)thio]acrylamide], the pest or weed control at 200 ppm in the assay on Phytophthora infestans (setting [6]) was determined as 100%; in assay [1] (setting [5]) it was 0%; in the assay with Piricularia oryzae (Pyricularia oryzae), 0%; in assay [2], 0%; in assay [3], 0%. In addition, the MIC in the assay with Pseudomonas fluorescens is > 250 µg/mL.

In the case of `CCCCCCCCNC(=O)/C=C\SC(=O)c1ccc([N+](=O)[O-])cc1C` [Compound 99, N-octyl-cis-3-[(2-methyl-4-nitrobenzoyl)thio]acrylamide], the pest or weed control at 200 ppm with Phytophthora infestans (setting [6]) came to 0%; in assay [1] (setting [5]) it was 0%; in the assay on Piricularia oryzae (Pyricularia oryzae), 75%; in assay [4] it was 50%; in assay [2], 50%. Also, the MIC in the assay with Pseudomonas fluorescens is > 250 µg/mL.

`CCCCCCCCNC(=O)/C=C\SC(=O)c1ccc(Cl)cc1Cl` [Compound 100, N-octyl-cis-3-[(2,4-dichlorobenzoyl)thio]acrylamide]: the pest or weed control at 200 ppm with Phytophthora infestans (setting [6]) turned out to be 0%; in assay [1] (setting [5]), 0%; in the assay with Piricularia oryzae (Pyricularia oryzae) it was 0%; in assay [4] it was 50%; in assay [2], 50%. The MIC in the assay on Pseudomonas fluorescens is > 250 µg/mL.

Consider `CCCCCCCCNC(=O)/C=C\SC(=O)C1C=CCC=C1C` (stereo not drawn) [Compound 101, N-octyl-cis-3-[(2-methylcyclohexa-2,5-diene)carbonylthio]acrylamide], for which the pest or weed control at 200 ppm in the assay with Phytophthora infestans (setting [6]) is 0%; in assay [1] (setting [5]), 0%; in the assay with Piricularia oryzae (Pyricularia oryzae), 75%; in assay [4], 50%; in assay [2] it was 0%. Besides, the MIC in the assay with Pseudomonas fluorescens is > 250 µg/mL.

Consider `CCCCCCCCNC(=O)/C=C\SC(=O)c1cccc(Cl)c1Cl` [Compound 102, N-octyl-cis-3-[(2,3-dichlorobenzoyl)thio]acrylamide], for which the pest or weed control at 200 ppm with Phytophthora infestans (setting [6]) stood at 0%; in assay [1] (setting [5]), 0%; in the assay on Piricularia oryzae (Pyricularia oryzae), 50%; in assay [4] it was 50%; in assay [2], 0%. In the assay on Pseudomonas fluorescens, the MIC was > 250 µg/mL.

As for `CCCCCCCCNC(=O)/C=C\SC(=O)c1ccc(Cl)c(Cl)c1` [Compound 103, N-octyl-cis-3-[(3,4-dichlorobenzoyl)thio]acrylamide], the pest or weed control at 200 ppm in the assay with Phytophthora infestans (setting [6]) came out at 0%; in assay [1] (setting [5]), 0%; with Piricularia oryzae (Pyricularia oryzae), 50%; in assay [4], 50%; in assay [2] it was 85%. In addition, in the assay on Pseudomonas fluorescens, the MIC was > 250 µg/mL.

As to `CCCCCCCCNC(=O)/C=C\SC(=O)c1ccc(Cl)c([N+](=O)[O-])c1` [Compound 104, N-octyl-cis-3-[(3-nitro-4-chlorobenzoyl)thio]acrylamide], the pest or weed control at 200 ppm was 0% with Phytophthora infestans (setting [6]); 0% in assay [1] (setting [5]); 50% in the assay with Piricularia oryzae (Pyricularia oryzae); 0% in assay [4]; 0% in assay [2]. The MIC in the assay with Pseudomonas fluorescens was > 250 µg/mL.

With `CCCCCCCCNC(=O)/C=C\SC(=O)c1ccc(C)cc1` [Compound 106, N-octyl-cis-3-[(4-methylbenzoyl)thio]acrylamide], the pest or weed control at 200 ppm came out at 0% in the assay with Phytophthora infestans (setting [6]); 0% in assay [1] (setting [5]); 0% in the assay on Piricularia oryzae (Pyricularia oryzae); 50% in assay [4]; 0% in assay [2]. For the same molecule, in the assay on Pseudomonas fluorescens, the MIC is > 250 µg/mL.

For the molecule `CCCCCCCCNC(=O)/C=C\SC(=O)c1cc([N+](=O)[O-])ccc1[N+](=O)[O-]` [Compound 107, N-octyl-cis-3-[(2,5-dinitrobenzoyl)thio]acrylamide], the pest or weed control at 200 ppm with Phytophthora infestans (setting [6]) is 0%; in assay [1] (setting [5]), 0%; in the assay with Piricularia oryzae (Pyricularia oryzae) it was 0%; in assay [4], 0%; in assay [2], 50%. Besides, the minimal inhibitory concentration (MIC) with Pseudomonas fluorescens was > 250 µg/mL.

Take `CCCCCCCCNC(=O)/C=C\SC(=O)c1cnccc1Cl` [Compound 108, N-octyl-cis-3-[(4-chloro-3-pyridine)carbonylthio]acrylamide]: the pest or weed control at 200 ppm in the assay on Phytophthora infestans (read-out: % Control TLB) stood at 90%; in assay [1] (setting [5]) it was 0%; in the assay with Piricularia oryzae (Pyricularia oryzae) it was 0%; in assay [4] it was 90%; in assay [2] it was 0%. In the assay on Pseudomonas fluorescens, the MIC is > 250 µg/mL.

Take `CCCCCCCCNC(=O)/C=C\SC(=O)CCCCCCC(=O)OC` [Compound 110, N-octyl-cis-3-[(7-methoxycarbonylheptanoyl)thio]acrylamide]: the pest or weed control at 200 ppm with Phytophthora infestans (read-out: % Control TLB) is 90%; in assay [1] (setting [5]), 0%; in the assay with Piricularia oryzae (Pyricularia oryzae), 75%; in assay [4], 70%; in assay [2], 0%.

For the molecule “N-octyl-cis-3-[(3-cyanobenzoyl)thio]acrylamide [Compound 67]”, the “% Control TLB” value in the assay on Phytophthora infestans (application rate 200 ppm) is given as 95 % Control. Besides, the “% Control WLR” value in assay [1] (in vivo) is recorded as 0 % Control. Besides, the “% Control RB” value with Piricularia oryzae (in vivo) is 0 % Control. Moreover, the “MIC Ps.fl” value in the assay on Pseudomonas fluorescens is > 250 Ppm. Moreover, the “% Control WPM” value in assay [2] (in vivo) came to 0 % Control. Further, the “% Control RSB” value in assay [3] (in vivo) is 0 % Control.

Broadly, the MIC is the lowest concentration that inhibits growth of the organism.
